The text below walks through data of patent US20250171438A1 (Agios Pharmaceuticals, Inc., priority 2022, published 2025).

Each structure is given as a SMILES string. Some results are limits rather than exact numbers.

One assay addresses T1, human PAH with the R408W mutation (Homo sapiens, UniProt P00439, R408W).
T1 construct: expressed in transfected cells
T1 sequence (P00439 1-452 R408W): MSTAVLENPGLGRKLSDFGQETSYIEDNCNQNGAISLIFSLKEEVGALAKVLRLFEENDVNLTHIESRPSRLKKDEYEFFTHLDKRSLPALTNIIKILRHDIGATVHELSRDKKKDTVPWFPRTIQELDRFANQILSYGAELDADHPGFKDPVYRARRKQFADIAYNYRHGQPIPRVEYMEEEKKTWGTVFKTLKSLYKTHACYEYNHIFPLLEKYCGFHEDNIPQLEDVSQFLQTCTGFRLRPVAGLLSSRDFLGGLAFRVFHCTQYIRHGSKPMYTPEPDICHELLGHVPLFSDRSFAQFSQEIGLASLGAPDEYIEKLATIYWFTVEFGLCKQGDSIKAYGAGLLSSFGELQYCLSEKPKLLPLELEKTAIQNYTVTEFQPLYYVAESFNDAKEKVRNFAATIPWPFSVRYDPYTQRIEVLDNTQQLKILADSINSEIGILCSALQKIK
The assay can be described thus: Cell Based Phenylalanine Flux Assay. As to conditions: A375 cells expressing human R408W PAH; 24 hrs compound incubation; 13C-Tyrosine by LC-MS; average where tested multiple times; read-out: AC50.
For `Cn1cc(-c2nc(C3CC3)c(C(=O)N3CCc4[nH]cnc4[C@@H]3c3nc4ccccc4s3)o2)cn1` [Example 1517, (R)-(4-(benzo[d]thiazol-2-yl)-6,7-dihydro-1H-imidazo[4,5-c]pyridin-5(4H)-yl)(4-cyclopropyl-2-(1-methyl-1H-pyrazol-4-yl)oxazol-5-yl)methanone], the AC50 was 1000 to 5000 nM.

Take `CN1CCN(c2nc(C(F)(F)F)c(C(=O)N3CCc4[nH]cnc4[C@@H]3c3nc4ccccc4s3)o2)CC1` [Example 1574, (R)-(4-(benzo[d]thiazol-2-yl)-6,7-dihydro-1H-imidazo[4,5-c]pyridin-5(4H)-yl)(2-(4-methylpiperazin-1-yl)-4-(trifluoromethyl)oxazol-5-yl)methanone]: the AC50 is less than 500 nM.

Turning to `O=C(c1cnco1)N1CCc2[nH]cnc2[C@@H]1c1nc2c(F)cccc2s1` [Example 2162], the AC50 was in the range of 1000 to 5000 nM.

Regarding `Cc1nc(C2CC2)oc1C(=O)N1CCc2[nH]cnc2[C@@H]1c1nc2ccccc2s1` [Example 1396, (R)-(4-(benzo[d]thiazol-2-yl)-6,7-dihydro-1H-imidazo[4,5-c]pyridin-5(4H)-yl)(2-cyclopropyl-4-methyloxazol-5-yl)methanone], the AC50 was greater than 5000 nM.

As for `O=C(c1cncs1)N1CCc2[nH]cnc2[C@@H]1c1nc2c(F)cccc2s1` [Example 1218, (R)-(4-(4-fluorobenzo[d]thiazol-2-yl)-6,7-dihydro-1H-imidazo[4,5-c]pyridin-5(4H)-yl)(thiazol-5-yl)methanone], the AC50 fell in the range of 1000 to 5000 nM.

On to `Cc1cccc2sc([C@@H]3c4nc[nH]c4CCN3C(=O)c3ncnn3C)nc12` [Example 2015], for which the AC50 lay within 500 to 1000 nM.

On to `O=C(c1cncs1)N1CCc2[nH]cnc2[C@H]1c1nc2cc(F)ccc2s1` [Example 1193, (S)-(4-(5-fluorobenzo[d]thiazol-2-yl)-6,7-dihydro-1H-imidazo[4,5-c]pyridin-5(4H)-yl)(thiazol-5-yl)methanone], for which the AC50 lay within 1000 to 5000 nM.

For the compound `O=C(CCC1CCCC1)N1CCc2[nH]cnc2[C@@H]1c1nc2ccccc2s1` [Example 1016, (R)-1-(4-(benzo[d]thiazol-2-yl)-6,7-dihydro-1H-imidazo[4,5-c]pyridin-5(4H)-yl)-3-cyclopentylpropan-1-one], the AC50 is 1000 to 5000 nM.

With `O=C(c1cnn2cc(CN3CCOCC3)ccc12)N1CCc2[nH]cnc2[C@H]1c1nc2ccccc2s1` [Example 2155], the AC50 was in the range of 1000 to 5000 nM.

As to `Cc1nc(-c2cnn(CC(F)(F)F)c2)oc1C(=O)N1CCc2[nH]cnc2[C@@H]1c1nc2ccccc2s1` [Example 1414, (R)-(4-(benzo[d]thiazol-2-yl)-6,7-dihydro-1H-imidazo[4,5-c]pyridin-5(4H)-yl)(4-methyl-2-(1-(2,2,2-trifluoroethyl)-1H-pyrazol-4-yl)oxazol-5-yl)methanone], the AC50 was in the range of 1000 to 5000 nM.

On to `O=C(c1oc(CCC2CC2)nc1C(F)(F)F)N1CCc2[nH]cnc2[C@H]1c1nc2ccccc2s1` [Example 1579], for which the AC50 is less than 500 nM.

Take `O=C(c1ncc(Cl)s1)N1CCc2[nH]cnc2[C@@H]1c1nc2ccccc2s1` [Example 1054, (R)-(4-(benzo[d]thiazol-2-yl)-6,7-dihydro-1H-imidazo[4,5-c]pyridin-5(4H)-yl)(5-chlorothiazol-2-yl)methanone]: the AC50 lay in the range of 1000 to 5000 nM.

For the compound `O=C(c1nc(Cl)cs1)N1CCc2[nH]cnc2[C@@H]1c1nc2ccc(Br)cc2[nH]1` [Example 950, (R)-(4-(6-bromo-1H-benzo[d]imidazol-2-yl)-6,7-dihydro-1H-imidazo[4,5-c]pyridin-5(4H)-yl)(4-chlorothiazol-2-yl)methanone], the AC50 was in the range of 1000 to 5000 nM.

For `O=C(CCc1nccs1)N1CCc2[nH]cnc2[C@H]1c1nc2cccc(F)c2s1` [Example 1035, (S)-1-(4-(7-fluorobenzo[d]thiazol-2-yl)-6,7-dihydro-1H-imidazo[4,5-c]pyridin-5(4H)-yl)-3-(thiazol-2-yl)propan-1-one], the AC50 fell in the range of 500 to 1000 nM.

As to `CC(C)(O)c1ncc(C(=O)N2CCc3[nH]cnc3[C@@H]2c2nc3ccccc3s2)o1` [Example 1447, (R)-(4-(benzo[d]thiazol-2-yl)-6,7-dihydro-1H-imidazo[4,5-c]pyridin-5(4H)-yl)(2-(2-hydroxypropan-2-yl)oxazol-5-yl)methanone], the AC50 was 1000 to 5000 nM.

As to `O=C(c1cnc(-c2ccccn2)s1)N1CCc2[nH]cnc2[C@@H]1c1nc2ccccc2s1` [Example 1206, (R)-(4-(benzo[d]thiazol-2-yl)-6,7-dihydro-1H-imidazo[4,5-c]pyridin-5(4H)-yl)(2-(pyridin-2-yl)thiazol-5-yl)methanone], the AC50 was in the range of 1000 to 5000 nM.

For the compound `O=C(c1cnn2cc(C3CC3)ccc12)N1CCc2[nH]cnc2[C@@H]1c1nc2ccccc2s1` [Example 1192, (R)-(4-(benzo[d]thiazol-2-yl)-6,7-dihydro-1H-imidazo[4,5-c]pyridin-5(4H)-yl)(6-cyclopropylpyrazolo[1,5-a]pyridin-3-yl)methanone], the AC50 was in the range of 1000 to 5000 nM.

As for `CN(C)CCc1ccc2c(C(=O)N3CCc4[nH]cnc4[C@H]3c3nc4c(F)cccc4s3)cnn2c1` [Example 1599, (S)-(6-(2-(dimethylamino)ethyl)pyrazolo[1,5-a]pyridin-3-yl)(4-(4-fluorobenzo[d]thiazol-2-yl)-6,7-dihydro-1H-imidazo[4,5-c]pyridin-5(4H)-yl)methanone], the AC50 lay within 500 to 1000 nM.

Regarding `O=C(Cc1nc(C(F)(F)F)cs1)N1CCc2[nH]cnc2[C@@H]1c1nc2ccccc2s1` [Example 1034, (R)-1-(4-(benzo[d]thiazol-2-yl)-6,7-dihydro-1H-imidazo[4,5-c]pyridin-5(4H)-yl)-2-(4-(trifluoromethyl)thiazol-2-yl)ethenone], the AC50 is greater than 5000 nM.

On to `CC(C)(O)c1ncc(C(=O)N2CCc3[nH]cnc3[C@H]2c2nc3ccccc3s2)s1` [Example 1435], for which the AC50 was less than 500 nM.

Consider `O=C(c1cnc(-c2ccc(F)cn2)s1)N1CCc2[nH]cnc2[C@H]1c1nc2ccccc2s1` [Example 1339], for which the AC50 is less than 500 nM.

The assay is the same for the next values; noted with them: A375 cells expressing human R408W PAH; 24 hrs with compound; 13C-Tyrosine by LC-MS; average where tested multiple times; read-out: AC50.
On to `COCc1ncc(C(=O)N2CCc3[nH]cnc3C2c2nc3ccccc3s2)o1` (centres unmarked), for which the AC50 is greater than 5000 nM.

For the compound `CC(C)(O)c1noc(C(=O)N2CCc3[nH]cnc3C2c2nc3ccccc3s2)n1` (centres unmarked), the AC50 was greater than 5000 nM.

As for `O=C(c1cnn2cccc(F)c12)N1CCc2[nH]cnc2C1c1nc2cc(F)ccc2s1` (centres unmarked), the AC50 is greater than 5000 nM.

Consider `O=C(c1nc2ccccc2s1)N1CCc2[nH]cnc2C1c1nc2ccc(Cl)cc2[nH]1` (centres unmarked), for which the AC50 lay within 1000 to 5000 nM.

Take `CC(C)(O)c1nsc(C(=O)N2CCc3[nH]cnc3C2c2nc3c(F)cccc3s2)n1` (centres unmarked): the AC50 was in the range of 1000 to 5000 nM.

On to `O=C(Cc1cnco1)N1CCc2[nH]cnc2C1c1nc2ccccc2s1` (centres unmarked), for which the AC50 was 1000 to 5000 nM.

On to `CC(C)(O)c1cc(C(=O)N2CCc3[nH]cnc3C2c2nc3ccccc3s2)no1` (centres unmarked), for which the half-maximal activity concentration (AC50) is 1000 to 5000 nM.

For the compound `O=C(c1nccs1)N1CCc2[nH]cnc2C1c1nc2cc(F)ccc2s1` (centres unmarked), the AC50 was greater than 5000 nM.

On to `CC(=O)Cn1ncc(C(=O)N2CCc3[nH]cnc3[C@@H]2c2nc3c(F)cccc3s2)c1Cl` (single isomer, unassigned), for which the AC50 was greater than 5000 nM.

As to `O=C(c1ccsn1)N1CCc2[nH]cnc2[C@H]1c1nc2ccccc2[nH]1` [(S)-(4-(1H-benzo[d]imidazol-2-yl)-1,4,6,7-tetrahydro-5H-imidazo[4,5-c]pyridin-5-yl)(isothiazol-3-yl)methanone], the AC50 was 1000 to 5000 nM.

`O=C(Cc1nncs1)N1CCc2[nH]cnc2C1c1nc2ccccc2s1` (centres unmarked): the AC50 fell in the range of 1000 to 5000 nM.
